Results reported in patent publication US20250270170A1, “2,3-DIMETHOXY-5-METHYL-1,4-BENZOQUINONE ALKYL ALCOHOL DERIVATIVE AND USE THEREOF” (BEIJING ANJIANXI BIO-MEDICAL TECHNOLOGY CO., LTD., priority 2021, published 2025).
Values joined by “and” are separate entries in the source; they are usually repeats but may differ in a detail not shown here. Equal entries are not always repeated. “Also recorded” adds a separate entry of the source.

Assays:
Assay type in all cases: in vivo, C57BL/6J mice
[1] = Example 11: body weight in cisplatin-induced acute kidney damage model; conditions: Amifostine group
Method: (§1) 42 male C57BL/6J mice (age: 6 to 8 weeks, body weight 18-20 g, certificate number: 11400700238365) were purchased from Si Pei Fu (Beijing) Biotechnology Co., Ltd., and raised in an SPF-grade animal room of the Institute of Materia Medica, Chinese Academy of Medical Sciences, at a temperature of 20 to 25° C., a relative humidity of 40% to 70%, and a cycle of 12 hours of light and 12 hours of dark. The animals had free access to water and food. After 3 days of normal feeding, mice with good physical conditions after the veterinary examination were selected for this assay. Before grouping, a marker was used to mark on the base of the animals' tail. After grouping, each animal was marked with an ear cutout (7 mice in each group).
(§2) Assay animals: 42 7-week-old male C57 mice were used for animal testing after an adaptive feeding.
(§3) Group 1: blank control group;
(§4) The preparation of the R01 formulation administration test solution was the same as that in Example 5: an appropriate amount of the R01 formulation was weighed according to the three dosages set in the assay, respectively, and an appropriate volume of 0.5% CMC-Na aqueous solution was added. The mixture was vortexed and sonicated until mixed evenly, to give the administration test solutions with concentrations of […], respectively, which were ready for use.
(§5) Animal testing period: 7 days (excluding adaptive feeding), hereinafter referred to as: D1-D7.
(§6) 1. The first group was a solvent control group: N=7, all mice were males (the same below); • a) 0.5% solution of sodium carboxymethyl cellulose was gavagely administered from D1 to D6 (twice a day for each animal, with an interval of 8 hours between the morning and the afternoon). • b) Physiological saline was intraperitoneally injected in one-time on D4. • c) On D7, blood was collected from the orbit for euthanasia (300 ul of serum was extracted), the left kidney was fixed in formaldehyde, and the right kidney was preserved in liquid nitrogen (WB study may be carried out).
(§7) 3) Each animal was weighed before euthanasia, and the weight was recorded. Two kidneys were weighed as soon as possible after euthanasia, and the weight was recorded. Then, the two kidneys were quickly fixed or cryopreserved, and the kidney coefficient of the mouse was calculated (kidney weight/mouse weight).
(§8) The body weight of the animals when being grouped for administration in each group was recorded. The body weight and the kidney weight at the end of the assay were also recorded, and the kidney coefficient was calculated. The creatinine and urea nitrogen values in the blood samples sent for testing were recorded. The kidneys were stained with HE and PAS, and the slides were scanned. A report was issued after the pathological analysis.
(§9) The assay data were calculated and processed statistically using Microsoft Office Excel 2007 software. Unless otherwise specified, the data were expressed as mean±standard error (Mean±SE), and t-test was used for comparison between two groups.

[2] = test system: cisplatin-induced acute kidney damage in mice; assay: Example 11: kidney weight and kidney coefficient in cisplatin-induced acute kidney damage model
Method: as §1, §2, §3, §4, §5, §6, §7, §8, §9

[3] = test system: cisplatin-induced acute kidney damage in mice; assay: Example 11: serum creatinine (Cre) in cisplatin-induced acute kidney damage model
Method: as §1, §2, §3, §4, §5, §6
(§10) 1) The concentrations of urea nitrogen and creatinine in peripheral blood serum were tested.
as §8, §9

[4] = test system: cisplatin-induced acute kidney damage in mice; assay: Example 11: serum urea nitrogen (Bun) in cisplatin-induced acute kidney damage model
Method: as §1, §2, §3, §4, §5, §6, §10, §8, §9

[5] = test system: cisplatin-induced acute kidney damage in mice; assay: Example 11: renal pathology (HE, PAS) and pathological scoring; conditions: cisplatin 10 mg/kg alone (model) or with amifostine 50 mg/kg i.p. half an hour before; trihydrate
Method: as §1, §2, §3, §4, §5
1. […]
The body weight of the animals when being grouped for administration in each group was recorded. The body weight and the kidney weight at the end of the assay were also recorded, and the kidney coefficient was calculated. The creatinine and urea nitrogen values in the blood samples sent for testing were recorded. […]

[6] = group mean, cisplatin model, Amifostine group
[7] = individual animals No. 1-7, cisplatin model, Amifostine group, trihydrate

With `NCCCNCCSP(=O)(O)O` [amifostine, Amifostine trihydrate, reference compound] the “Body weight, Before x- after x” value ([1]; difference of group means, cisplatin model) was 4.1 g, the “Body weight before cisplatin modeling, Before x (mean)” value ([1]; group mean) was 20.9 g and the “Body weight after the assay, After x (mean)” value ([1]; group mean, cisplatin model) was 16.8 g. The “Body weight before cisplatin modeling” value ([1]; individual animals No. 1-7, trihydrate) was 20.2 g and 20.6 g (2×) and 20.4 g and 20.5 g and 21.8 g and 22.4 g, the “Body weight after the assay” value ([1]; individual animals No. 1-7, cisplatin model, trihydrate) was 18 g and 16.7 g and 16.8 g and 17.1 g and 16.3 g and 15.8 g and 17.2 g and the “Kidney coefficient (kidney weight/body weight), x (mean)” value [2, 6] was 0.014. For the same compound, the “Kidney weight after the assay, x (mean)” value [2, 6] was 0.224 g, the “Kidney coefficient (kidney weight/body weight)” value [2, 7] was 0.014 (3×) and 0.015 (2×) and 0.013 (2×) and the “Kidney weight after the assay” value [2, 7] was 0.223 g and 0.249 g and 0.202 g and 0.227 g and 0.220 g and 0.205 g and 0.241 g. The “Kidney coefficient (kidney weight/body weight)” value ([2]; with cisplatin 10 mg/kg, amifostine 50 mg/kg i.p., R01 6, 18, 36 mg/kg bid) was “equivalent to that of the blank control group”, the serum creatinine value ([3]; cisplatin 10 mg/kg alone (vs blank, P<0.01) or with amifostine 50 mg/kg i.p. / R01 6, 18, 36 mg/kg bid) was “equivalent to that of the blank control group” and the “Serum creatinine (Cre) level after the assay, x (mean)” value [3, 6] was 16.1 mg/dL. The “Serum creatinine (Cre) level after the assay” value [3, 7] was 9 mg/dl and 19 mg/dl and 14 mg/dl and 18 mg/dl (3×) and 17 mg/dl, the “serum urea nitrogen value” ([4]; cisplatin 10 mg/kg alone (vs blank, P<0.05) or with amifostine 50 mg/kg i.p. (P<0.01)) was “significantly lower than that of the model group” and the “Urea nitrogen (Bun) level after the assay, x (mean)” value [4, 6] was 8.1 mg/dL. For the same compound, the “Urea nitrogen (Bun) level after the assay” value [4, 7] was 10.92 mg/dL and 8.76 mg/dL and 6.62 mg/dL and 7.23 mg/dL and 7.62 mg/dL and 8.78 mg/dL and 6.47 mg/dL and the “pathological damage of kidneys” value [5] was “slight renal tubular damage and blurred renal tubular epithelial edges; also recorded: significantly reduced”.
